The source of these data is patent US20240261292A1, “COMBINATION THERAPIES” (Janssen Pharmaceutica NV, priority 2021, published 2024).

The structures appear in SMILES notation.

The nature of series [1]: Metabolic stability in human liver microsomes. In kind it is in vitro ADME. The conditions noted are these: pH 7.4, 0.5 mg/mL microsomes protein, read-out: Human LM Clint. As for the experimental part:
4) Metabolic Stability in Human/Mouse Liver Microsomes
The objective of this study is to measure in vitro metabolic stability of test compound(s) in human and mouse liver microsomes and provide quantitative information on the rate of metabolic turnover (i.e., determination of the apparent intrinsic clearance of test).
Test items were prepared at a stock concentration of 10 mM in DMSO. For determination of metabolic turnover, a final working solution was prepared by adding 2 μL of 10 mM DMSO stock solution for test compound or positive control compounds to 198 μL of acetonitrile (100 μM final concentration).
Incubations were performed as follows: First, liver microsomes were thawed on ice and a master solution containing liver microsomes in 100 mM PBS (phosphate-buffered saline) at pH 7.4 is prepared. Next, the liver microsomes solution was added to the incubation plates and 10 mM NADPH (Nicotinamide-adenine dinucleotide phosphate) was added (MW: 833.4 g/mol; Roche Diagnostics GmbH1, Germany. Dissolved in phosphate buffer (100 mmol/L, pH 7.4)). […]
All calculations were carried out using Microsoft Excel. The slope value, k, was determined by linear regression of the natural logarithm of the remaining percentage of the parent drug vs. incubation time curve.
The in vitro half-life (in vitro t1/2) was determined from the slope value: […]
Background: Microsomes from liver hold many membrane-bound enzymes, among them those of drug oxidation.

In another series the target is hERG (Homo sapiens (Human), UniProt Q12809). The series is described as follows: hERG current in hERG-transfected HEK293 cells (Protocol 2, SyncroPatch 384PE). It is filed as cell-based. To be noted: Protocol 2, HEK293 cells. On the procedure:
The compound, vehicle control and positive control were tested on hERG-transfected HEK293 cells. A human embryonic kidney cell line (HEK293) with a stable transfection of hERG (Zhou Z et al. Biophysical Journal 1998. 74, 230-241; McDonald T. V. et al, Nature 1997. 388, 289-292) was used (University of Wisconsin, Madison, USA). The cells were kept in culture in MEM (Minimum Essential Medium, Gibco) which was supplemented with (amounts indicated added to 500 ml MEM): 5 ml L-Glutamine-Penicillin-Streptomycin (Sigma), 50 ml Fetal Bovine serum (Bio-Whittaker), 5 ml Non-essential Amino Acids 100× (Gibco), 5 mil sodium pyruvate 100 mM (Gibco) and 4 ml geneticin 50 mg/ml (Gibco) using T175 flasks.
Cells were harvested as described below using Accumax™ (Sigma) as the dissociating reagent. Cells were then resuspended in a mixture of 33% DMEM/F12 (Dulbecco's Modified Eagle Medium/Nutrient Mixture F-12—Sigma) media/67% extracellular physiological solution. […]
The whole cell patch clamp technique on transfected cells allows the study of ion-channels with no—or limited interference from other ion-channels. […] All cells were recorded in the whole cell mode of the patch clamp technique. […]
After the whole cell mode was achieved, test pulses were given for ˜10 minutes to quantify the hERG current in control conditions. […]

A further series deals with MOLM-14 cells. The series is described as follows: Proliferation assay (spheroid), MOLM-14. In kind it is cell-based. To be noted: Homo sapiens, 8 days, read-out: spheroid assay_OneTime MOLM-14 IC50.

For orientation: IC50 means the concentration needed to halve the response being measured.

hERG, sequence (Q12809 whole entry): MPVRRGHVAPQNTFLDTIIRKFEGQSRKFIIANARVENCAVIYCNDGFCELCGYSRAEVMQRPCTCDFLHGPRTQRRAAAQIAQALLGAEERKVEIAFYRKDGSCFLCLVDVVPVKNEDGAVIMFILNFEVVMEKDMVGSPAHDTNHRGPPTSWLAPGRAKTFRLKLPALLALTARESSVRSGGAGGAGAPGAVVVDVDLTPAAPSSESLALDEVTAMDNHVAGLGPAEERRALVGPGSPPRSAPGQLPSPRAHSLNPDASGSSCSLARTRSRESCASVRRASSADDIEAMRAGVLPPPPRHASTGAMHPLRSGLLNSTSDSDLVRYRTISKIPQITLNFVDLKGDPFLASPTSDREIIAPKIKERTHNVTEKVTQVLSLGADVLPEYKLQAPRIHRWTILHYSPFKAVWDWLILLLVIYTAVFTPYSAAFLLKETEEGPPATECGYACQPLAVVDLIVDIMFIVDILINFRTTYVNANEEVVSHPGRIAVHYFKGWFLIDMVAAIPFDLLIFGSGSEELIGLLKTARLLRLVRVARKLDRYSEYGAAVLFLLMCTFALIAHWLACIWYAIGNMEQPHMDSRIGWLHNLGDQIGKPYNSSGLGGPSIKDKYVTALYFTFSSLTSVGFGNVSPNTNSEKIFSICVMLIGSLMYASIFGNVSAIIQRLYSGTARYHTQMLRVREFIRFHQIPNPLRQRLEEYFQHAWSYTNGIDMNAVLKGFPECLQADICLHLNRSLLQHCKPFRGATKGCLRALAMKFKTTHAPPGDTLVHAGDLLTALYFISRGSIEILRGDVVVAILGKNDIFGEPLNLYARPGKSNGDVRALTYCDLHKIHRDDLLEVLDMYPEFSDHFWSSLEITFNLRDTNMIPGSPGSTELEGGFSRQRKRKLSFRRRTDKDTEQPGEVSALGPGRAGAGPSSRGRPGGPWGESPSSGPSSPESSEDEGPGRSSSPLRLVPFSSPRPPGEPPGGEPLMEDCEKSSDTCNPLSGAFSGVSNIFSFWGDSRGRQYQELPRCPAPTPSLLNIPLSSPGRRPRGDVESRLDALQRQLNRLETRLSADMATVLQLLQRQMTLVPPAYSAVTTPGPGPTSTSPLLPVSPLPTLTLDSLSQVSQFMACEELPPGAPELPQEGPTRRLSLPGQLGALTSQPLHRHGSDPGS

As for `CCN(C(=O)c1cc(F)ccc1Oc1nncnc1N1CCC2(C1)CN([C@H](CCCNCCOC)C(C)C)C2)C(C)C` [Compound 11, (R)-N-ethyl-5-fluoro-N-isopropyl-2-((5-(2-(6-((2-methoxyethyl)amino)-2-methylhexan-3-yl)-2,6-diazaspiro[3.4]octan-6-yl)-1,2,4-triazin-6-yl)oxy)benzamide], in series [1], the microsomal CLint at 1 μM was 14 µL/min/mg. Also, the IC50 against hERG was greater than 30.2 µM; with MOLM-14 cells it was 0.021 µM.
